Experimental data taken from ChEMBL document CHEMBL3885881, “DrugMatrix”.

Organism: Rattus norvegicus
Assay: DrugMatrix - Regimen: Daily Repeat
Type: toxicity, organism-based, Sprague-Dawley
Design: regimen Daily Repeat, gender Male, age 6-8 weeks
Conditions: in vivo, po, 900 mg/kg, route oral GAVAGE, dose level High, […]; for ABSOLUTE BASOPHIL / ABSOLUTE EOSINOPHIL / ABSOLUTE LYMPHOCYTE / ABSOLUTE MONOCYTE / BASOPHIL / EOSINOPHIL / ERYTHROCYTE COUNT / HEMATOCRIT / HEMOGLOBIN / LEUKOCYTE COUNT / LYMPHOCYTE / MEAN CORPUSCULAR HEMOGLOBIN / MEAN CORPUSCULAR HEMOGLOBIN CONCENTRATION / MEAN CORPUSCULAR VOLUME / MONOCYTE / NEUTROPHIL / PLATELET COUNT: tissue Blood
[1] = 72 h, tissue Plasma, time 3 day
[2] = 120 h, tissue Plasma, time 5 day

**Q.** With `Clc1ccc(Cl)cc1` [1,4-DICHLOROBENZENE] as the molecule, how does the ABSOLUTE BASOPHIL (72 h, time 3 day) read?
**A.** 33.3 cells/µL

**Q.** And the ABSOLUTE EOSINOPHIL (72 h, time 3 day)?
**A.** 40 cells/µL

**Q.** And the ABSOLUTE LYMPHOCYTE (72 h, time 3 day)?
**A.** 9740 cells/µL

**Q.** What about the ABSOLUTE MONOCYTE (72 h, time 3 day) of the same molecule?
**A.** 310 cells/µL

**Q.** And the BASOPHIL (72 h, time 3 day)?
**A.** 0.27%

**Q.** What about the EOSINOPHIL (72 h, time 3 day) of the same molecule?
**A.** 0.33%

**Q.** And the “ERYTHROCYTE COUNT” value (72 h, time 3 day)?
**A.** 7.33 x10E6/uL

**Q.** And the HEMATOCRIT (72 h, time 3 day)?
**A.** 47.67%

**Q.** And the HEMOGLOBIN (72 h, time 3 day)?
**A.** 15.3 G/DL

**Q.** And the “LEUKOCYTE COUNT” value (72 h, time 3 day)?
**A.** 11.53 x10E3/uL

**Q.** What about the LYMPHOCYTE (72 h, time 3 day) of the same molecule?
**A.** 85.37%

**Q.** And the “MEAN CORPUSCULAR HEMOGLOBIN” value (72 h, time 3 day)?
**A.** 20.83 pg

**Q.** What about the “MEAN CORPUSCULAR HEMOGLOBIN CONCENTRATION” value (72 h, time 3 day) of the same molecule?
**A.** 32.07 G/DL

**Q.** And the “MEAN CORPUSCULAR VOLUME” value (72 h, time 3 day)?
**A.** 65 fL

**Q.** And the MONOCYTE (72 h, time 3 day)?
**A.** 2.5%

**Q.** What about the NEUTROPHIL (72 h, time 3 day) of the same molecule?
**A.** 11%

**Q.** What about the “PLATELET COUNT” value (72 h, time 3 day) of the same molecule?
**A.** 1237 x10E3/uL

**Q.** And the “ALANINE AMINOTRANSFERASE” value [1]?
**A.** 80.33 u/L

**Q.** What about the ALBUMIN [1] of the same molecule?
**A.** 3.47 G/DL

**Q.** And the “ALKALINE PHOSPHATASE” value [1]?
**A.** 437.33 u/L

**Q.** What about the “ASPARTATE AMINOTRANSFERASE” value [1] of the same molecule?
**A.** 129.33 u/L

**Q.** And the “BLOOD UREA NITROGEN” value [1]?
**A.** 18.67 mg/dL

**Q.** And the “CARBON DIOXIDE” value [1]?
**A.** 40 mmol/L

**Q.** And the CHLORIDE [1]?
**A.** 106.67 MEQ/L

**Q.** And the CHOLESTEROL [1]?
**A.** 71 mg/dL

**Q.** And the “CREATINE PHOSPHOKINASE” value [1]?
**A.** 391 u/L

**Q.** And the CREATININE [1]?
**A.** 0.63 mg/dL

**Q.** And the GLUCOSE [1]?
**A.** 167.33 mg/dL

**Q.** And the LIPASE [1]?
**A.** 199.33 u/L

**Q.** What about the PHOSPHORUS [1] of the same molecule?
**A.** 9.67 mg/dL

**Q.** And the POTASSIUM [1]?
**A.** 5.7 MEQ/L

**Q.** And the SODIUM [1]?
**A.** 148.67 MEQ/L

**Q.** And the “TOTAL BILIRUBIN” value [1]?
**A.** 0.83 mg/dL

**Q.** And the “TOTAL PROTEIN” value [1]?
**A.** 5.53 G/DL

**Q.** What about the “URIC ACID” value [1] of the same molecule?
**A.** 0.77 mg/dL

**Q.** And the ABSOLUTE BASOPHIL (120 h, time 5 day)?
**A.** 30 cells/µL

**Q.** And the ABSOLUTE EOSINOPHIL (120 h, time 5 day)?
**A.** 80 cells/µL

**Q.** What about the ABSOLUTE LYMPHOCYTE (120 h, time 5 day) of the same molecule?
**A.** 9070 cells/µL

**Q.** What about the ABSOLUTE MONOCYTE (120 h, time 5 day) of the same molecule?
**A.** 300 cells/µL

**Q.** And the BASOPHIL (120 h, time 5 day)?
**A.** 0.3%

**Q.** What about the EOSINOPHIL (120 h, time 5 day) of the same molecule?
**A.** 0.73%

**Q.** What about the “ERYTHROCYTE COUNT” value (120 h, time 5 day) of the same molecule?
**A.** 7.06 x10E6/uL

**Q.** And the HEMATOCRIT (120 h, time 5 day)?
**A.** 45.4%

**Q.** And the HEMOGLOBIN (120 h, time 5 day)?
**A.** 14.13 G/DL

**Q.** What about the “LEUKOCYTE COUNT” value (120 h, time 5 day) of the same molecule?
**A.** 11.69 x10E3/uL

**Q.** What about the LYMPHOCYTE (120 h, time 5 day) of the same molecule?
**A.** 77.37%

**Q.** What about the “MEAN CORPUSCULAR HEMOGLOBIN” value (120 h, time 5 day) of the same molecule?
**A.** 20.03 pg

**Q.** And the “MEAN CORPUSCULAR HEMOGLOBIN CONCENTRATION” value (120 h, time 5 day)?
**A.** 31.1 G/DL

**Q.** And the “MEAN CORPUSCULAR VOLUME” value (120 h, time 5 day)?
**A.** 64.53 fL

**Q.** What about the MONOCYTE (120 h, time 5 day) of the same molecule?
**A.** 2.57%

**Q.** What about the NEUTROPHIL (120 h, time 5 day) of the same molecule?
**A.** 18.23%

**Q.** What about the “PLATELET COUNT” value (120 h, time 5 day) of the same molecule?
**A.** 1234.33 x10E3/uL

**Q.** And the “ALANINE AMINOTRANSFERASE” value [2]?
**A.** 88.67 u/L

**Q.** And the ALBUMIN [2]?
**A.** 3.83 G/DL

**Q.** What about the “ALKALINE PHOSPHATASE” value [2] of the same molecule?
**A.** 433.33 u/L

**Q.** And the “ASPARTATE AMINOTRANSFERASE” value [2]?
**A.** 100.33 u/L

**Q.** What about the “BLOOD UREA NITROGEN” value [2] of the same molecule?
**A.** 16 mg/dL

**Q.** What about the “CARBON DIOXIDE” value [2] of the same molecule?
**A.** 42.33 mmol/L

**Q.** And the CHLORIDE [2]?
**A.** 105.33 MEQ/L

**Q.** And the CHOLESTEROL [2]?
**A.** 119 mg/dL

**Q.** And the “CREATINE PHOSPHOKINASE” value [2]?
**A.** 376.67 u/L

**Q.** And the CREATININE [2]?
**A.** 0.5 mg/dL

**Q.** What about the GLUCOSE [2] of the same molecule?
**A.** 166.67 mg/dL

**Q.** And the LIPASE [2]?
**A.** 96 u/L

**Q.** And the PHOSPHORUS [2]?
**A.** 9.13 mg/dL

**Q.** And the POTASSIUM [2]?
**A.** 5.73 MEQ/L

**Q.** And the SODIUM [2]?
**A.** 148.67 MEQ/L

**Q.** What about the “TOTAL BILIRUBIN” value [2] of the same molecule?
**A.** 0.6 mg/dL

**Q.** And the “TOTAL PROTEIN” value [2]?
**A.** 6.27 G/DL

**Q.** What about the “URIC ACID” value [2] of the same molecule?
**A.** 0.57 mg/dL

**Q.** What about the ABSOLUTE BASOPHIL (time 14 day) of the same molecule?
**A.** 52 cells/µL

**Q.** What about the ABSOLUTE EOSINOPHIL (time 14 day) of the same molecule?
**A.** 38 cells/µL

**Q.** And the ABSOLUTE LYMPHOCYTE (time 14 day)?
**A.** 10600 cells/µL

**Q.** What about the ABSOLUTE MONOCYTE (time 14 day) of the same molecule?
**A.** 320 cells/µL

**Q.** What about the BASOPHIL (time 14 day) of the same molecule?
**A.** 0.36%

**Q.** And the EOSINOPHIL (time 14 day)?
**A.** 0.28%

**Q.** What about the “ERYTHROCYTE COUNT” value (time 14 day) of the same molecule?
**A.** 7.26 x10E6/uL

**Q.** And the HEMATOCRIT (time 14 day)?
**A.** 44.36%

**Q.** And the HEMOGLOBIN (time 14 day)?
**A.** 14.58 G/DL

**Q.** And the “LEUKOCYTE COUNT” value (time 14 day)?
**A.** 14.34 x10E3/uL

**Q.** And the LYMPHOCYTE (time 14 day)?
**A.** 74.48%

**Q.** And the “MEAN CORPUSCULAR HEMOGLOBIN” value (time 14 day)?
**A.** 20.04 pg

**Q.** And the “MEAN CORPUSCULAR HEMOGLOBIN CONCENTRATION” value (time 14 day)?
**A.** 32.82 G/DL

**Q.** What about the “MEAN CORPUSCULAR VOLUME” value (time 14 day) of the same molecule?
**A.** 61.16 fL

**Q.** What about the MONOCYTE (time 14 day) of the same molecule?
**A.** 2.18%

**Q.** What about the NEUTROPHIL (time 14 day) of the same molecule?
**A.** 22.12%

**Q.** What about the “PLATELET COUNT” value (time 14 day) of the same molecule?
**A.** 1242.2 x10E3/uL

**Q.** And the “ALANINE AMINOTRANSFERASE” value (tissue Plasma, time 14 day)?
**A.** 68 u/L

**Q.** And the ALBUMIN (tissue Plasma, time 14 day)?
**A.** 4.02 G/DL

**Q.** And the “ALKALINE PHOSPHATASE” value (tissue Plasma, time 14 day)?
**A.** 529.2 u/L

**Q.** What about the “ASPARTATE AMINOTRANSFERASE” value (tissue Plasma, time 14 day) of the same molecule?
**A.** 89.8 u/L

**Q.** What about the “BLOOD UREA NITROGEN” value (tissue Plasma, time 14 day) of the same molecule?
**A.** 15.8 mg/dL

**Q.** What about the “CARBON DIOXIDE” value (tissue Plasma, time 14 day) of the same molecule?
**A.** 43.6 mmol/L

**Q.** And the CHLORIDE (tissue Plasma, time 14 day)?
**A.** 102.2 MEQ/L

**Q.** What about the CHOLESTEROL (tissue Plasma, time 14 day) of the same molecule?
**A.** 110.2 mg/dL

**Q.** What about the “CREATINE PHOSPHOKINASE” value (tissue Plasma, time 14 day) of the same molecule?
**A.** 309 u/L

**Q.** And the CREATININE (tissue Plasma, time 14 day)?
**A.** 0.78 mg/dL

**Q.** And the GLUCOSE (tissue Plasma, time 14 day)?
**A.** 134.2 mg/dL

**Q.** What about the “LACTATE DEHYDROGENASE” value (tissue Plasma, time 14 day) of the same molecule?
**A.** 217.6 u/L

**Q.** And the LIPASE (tissue Plasma, time 14 day)?
**A.** 10 u/L

**Q.** And the PHOSPHORUS (tissue Plasma, time 14 day)?
**A.** 9.34 mg/dL

**Q.** And the POTASSIUM (tissue Plasma, time 14 day)?
**A.** 5.94 MEQ/L

**Q.** What about the SODIUM (tissue Plasma, time 14 day) of the same molecule?
**A.** 147.8 MEQ/L

**Q.** What about the “TOTAL BILIRUBIN” value (tissue Plasma, time 14 day) of the same molecule?
**A.** 0.44 mg/dL

**Q.** What about the “TOTAL PROTEIN” value (tissue Plasma, time 14 day) of the same molecule?
**A.** 6.7 G/DL

**Q.** And the “URIC ACID” value (tissue Plasma, time 14 day)?
**A.** 0.52 mg/dL
